Results published in paper PMC12444472, “BCI inhibits MKP3 by targeting the kinase-binding domain and disrupting ERK2 interaction” (The Journal of Biological Chemistry, 2025).
Entries after “also recorded” stand apart in the source; their conditions may differ.

Assays:
MKP5^CD = molecular target: T1, MKP5^CD (Homo sapiens, UniProt Q9Y6W6); experiment: MST affinity measurement; assay type: binding
T1 construct: MKP5(320–467) (MKP5^CD); made in house; host or cells: Escherichia coli BL21(DE3)
T1 sequence (Q9Y6W6 320-467): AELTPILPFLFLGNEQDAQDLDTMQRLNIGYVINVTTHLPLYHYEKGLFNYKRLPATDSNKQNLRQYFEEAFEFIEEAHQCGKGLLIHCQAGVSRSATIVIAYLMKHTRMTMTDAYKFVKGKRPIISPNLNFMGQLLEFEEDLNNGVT
Procedure: (§1) MST measurements were performed using fluorescently labeled proteins and the inhibitor BCI (CAS: 1245792-51-1; TargetMol) on a Monolith instrument (NanoTemper Technologies). The RED–Tris–NTA second-generation dye was dissolved in MST buffer (20 mM Hepes, pH 7.4, 200 mM NaCl, and 0.05% Tween-20) to prepare a 5 μM stock solution. Fluorescent labeling of MKP proteins followed the standard protocol of the MO-L018 RED–Tris–NTA protein labeling kit, leveraging the His-tag–dye interaction.
(§2) The BCI compound was prepared as a 600 to 750 μM stock solution in MST buffer with 10% DMSO to enhance solubility, followed by a 16-point serial dilution. The diluted BCI solutions were thoroughly mixed with labeled MKP proteins (50 nM) at a 1:1 volume ratio, yielding a final volume of 10 μl. The reaction mixtures were incubated in the dark for 10 min at room temperature before being loaded into standard glass capillaries. Measurements were carried out on the Monolith instrument (100% LED, 40% IR laser power) with a 20 s laser on time. The normalized fluorescence values from triplicate measurements were averaged at each concentration and fitted to a 1:1 binding model using the KD model in MO.Affinity software (v3.0.5, NanoTemper Technologies) to determine the binding affinities between MKP proteins and the BCI inhibitor. […]

MKP3^CD [1] = molecular target: T2, MKP3^CD (Homo sapiens, UniProt Q16828); experiment: MST affinity measurement; assay type: binding
T2 construct: ^15N-labeled MKP3^1–154, MKP3^14–152, MKP3^204–350; made in house; host or cells: Escherichia coli BL21(DE3)
T2 sequence (Q16828 204-350): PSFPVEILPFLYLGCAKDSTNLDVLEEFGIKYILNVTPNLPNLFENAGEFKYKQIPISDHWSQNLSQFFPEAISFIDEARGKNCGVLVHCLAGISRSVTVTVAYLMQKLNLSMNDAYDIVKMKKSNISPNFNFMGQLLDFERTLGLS
Procedure: as §1, §2

MKP3 = conditions: cited from earlier work
MKP3^CD [2] = molecular target: T2, MKP3^CD; experiment: Phosphatase activity toward pERK2 (coupled MESG assay); assay type: biochemical; conditions: initial velocities in absence and presence of BCI, n = 3
Procedure: (§3) The phosphatase activity of MKP3 (0.5 μM) toward pERK2 (0.5 μM) was measured using a coupled assay, in which phosphate released from the substrate was transferred to 7-methyl-6-thioguanosine (MESG) by purine nucleoside phosphorylase. Assays were performed in a reaction mixture containing 50 mM Mops (pH 7.0), 100 mM NaCl, 0.1 mM EDTA, 100 μM MESG, 4 μM purine nucleoside phosphorylase, and varying concentrations of BCI, as indicated in Figure 5. Dephosphorylation was monitored by measuring absorbance changes at 360 nm, reflecting the conversion of MESG to 7-methyl-6-thioguanine in the presence of inorganic phosphate. Phosphate quantification was performed using an extinction coefficient of 11,200 M^-1 cm^-1 at 360 nm.
(§4) Stock solutions of BCI (dissolved in DMSO) at different concentrations were prepared to maintain a constant DMSO concentration across all BCI concentrations in the phosphatase inhibition assays, thereby eliminating potential effects of varying DMSO levels on detection. Initial reaction rates were determined from the linear slope of progress curves, and the data were analyzed using nonlinear regression. Kinetic parameters (kcat and Km) were obtained by fitting the data to the Michaelis–Menten equation: v0 = kcat[E][S]/(Km + [S]). […]

MKP3^FL = molecular target: T3, MKP3^FL (Homo sapiens, UniProt Q16828); experiment: as above; assay type: biochemical; conditions: BCI at concentration 50 times that of pERK2
T3 construct: MKP3(1–381) (MKP3^FL); made in house; host or cells: Escherichia coli BL21(DE3)
T3 sequence (Q16828 1-381): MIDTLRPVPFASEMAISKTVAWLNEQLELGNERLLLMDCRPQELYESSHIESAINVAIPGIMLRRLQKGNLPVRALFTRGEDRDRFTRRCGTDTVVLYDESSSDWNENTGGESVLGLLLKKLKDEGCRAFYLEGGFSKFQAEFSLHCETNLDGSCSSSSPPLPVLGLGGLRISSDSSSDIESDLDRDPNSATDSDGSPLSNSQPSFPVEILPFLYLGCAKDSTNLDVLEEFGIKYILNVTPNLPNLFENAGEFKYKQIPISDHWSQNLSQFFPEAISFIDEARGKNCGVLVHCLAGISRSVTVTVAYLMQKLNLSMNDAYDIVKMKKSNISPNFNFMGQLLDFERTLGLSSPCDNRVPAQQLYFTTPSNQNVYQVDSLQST
Procedure: as §3, §4

- binding by MST (MKP5^CD): no interaction was detected
- effect on MKP3^CD activity toward pERK2 (MKP3^CD [2]): no effect
- extension of pERK2 dephosphorylation time (MKP3^FL): more than 20 fold
Compound: O=C1/C(=C/c2ccccc2)C(NC2CCCCC2)c2ccccc21 (stereo not drawn) [BCI, (E)-2-benzylidene-3-(cyclohexylamino)-2,3-dihydro-1H-inden-1-one]
- binding by MST (MKP3^CD [1]): no detectable binding; also recorded: no binding was detected
- effect on ERK2-mediated MKP3 activity (MKP3; ERK2-stimulated, OMFP substrate): inhibits
- effect on MKP3's basal activity toward OMFP (MKP3; basal, without ERK2): does not affect
